Earlier results on 1 compound are cited in US20040087564A1, “Delivery composition and method” (priority 2002, published 2004).

SMILES strings stand for the structures.

`C[C@]12CC[C@H]3[C@@H](CCC4=CC(=O)CC[C@@]43C)[C@@H]1CC[C@@H]2O` [testosterone]: under “in rabbits”, the “true testosterone disposition half-life” value was approximately 15 min. Besides, where the note is “male rabbit, Bourget et al., Steroids 43:225-233 (1984)”, the testosterone clearance is 29.2 mL/min/kg.
